Assay results as given in paper PMC9561422 (Clinical and Translational Medicine, 2022).
Entries after “also recorded” stand apart in the source; their conditions may differ. Like-named read-outs stand apart in the source and are kept apart here. Ends that are not written are not given here.

Legend:
muscle homogenate = settings: C57BL/6 mice
kidney homogenate = settings: C57BL/6 mice
liver homogenate = settings: C57BL/6 mice
faeces homogenate = settings: C57BL/6 mice
[1] = colon homogenate (incl. caecum); settings: C57BL/6 mice
[2] = ex vivo
Description: The powdered medium is dissolved in 900 mL water while stirring. To this solution, 0.3790 g CaCl2×2H2O and 2.098 g NaHCO3 are subsequently added while stirring. NaOH or HCl was used to adjust to pH 7.4. This solution is then further diluted to 1000 mL using ultrapure water.
The blood was collected in a 1.5 mL Eppendorf tube after decapitating the mouse. The blood of the 4 mice was pooled and centrifuged for 10 min at 1000 g at 5 °C. The supernatant (serum) was transferred to a 500 µL Eppendorf and was immediately frozen and stored at -35 °C.
The liver (5.0070 g) was collected from four C57BL/6 mice after cervical dislocation. After cleaning and rinsing the organ using ice-cold KH buffer, the liver was cut in little pieces and transferred into a 50 mL tube to which 36 mL ice-cold KH buffer was added. The liver was then homogenized with mixer. After the larger particles were allowed to settle for about 30 minutes at 5 °C, approximately 25 mL of the middle layer was transferred into a 50 mL Falcon tube using a plastic pipette. After shaking the homogenate, the homogenate was dispensed into ten 2 mL Eppendorf tubes, and stored at -35 °C until use. The protein content of the homogenate was determined to be 18.24 mg/mL using the Pierce Modified Lowry Protein Assay method. Just before use, the homogenate was diluted to a protein concentration of 0.6 mg/mL (i.e. 300 µg / 500 µl) by the addition of 29.4 mL of KH buffer to 1000 µl of the homogenate.
The kidneys (1.4143 g) were collected from four C57BL/6 mice after cervical dislocation. After cleaning and rinsing the organs using ice-cold KH buffer, the kidneys were cut in little pieces and transferred into a 50 mL tube to which 24 mL ice-cold KH buffer was added. The kidneys were then homogenized with mixer. After the larger particles were allowed to settle for about 30 minutes at 5 °C, approximately 10 mL of the middle layer was transferred into a 50 mL Falcon tube using a plastic pipette. After shaking the homogenate, the homogenate was dispensed into five 2 mL Eppendorf tubes, and stored at -35 °C until use. The protein content of the homogenate was determined to be 5.92 mg/mL using the Pierce Modified Lowry Protein Assay method. Just before use, the homogenate was diluted to a protein concentration of 0.6 mg/mL (i.e. 300 µg / 500 µl) by the addition of 8.87 mL of KH buffer to 1000 µl of the homogenate.
The colons (incl. caecum) (1.4174 g) were collected from four C57BL/6 mice after cervical dislocation. After cleaning and rinsing the organs using ice-cold KH buffer, the colons were cut in little pieces and transferred into a 15 mL tube to which 5 mL ice-cold KH buffer was added. The colons were then homogenized with mixer. After the larger particles were allowed to settle for about 30 minutes at 5 °C, approximately 2 mL of the middle layer was dispensed into a 2 mL Eppendorf tube, and stored at -35 °C until use. The protein content of the homogenate was determined to be 2.35 mg/mL using the Pierce Modified Lowry Protein Assay method. Just before use, the homogenate was diluted to a protein concentration of 0.6 mg/mL (i.e. 300 µg / 500 µl) by the addition of 2.92 mL of KH buffer to 1000 µl of the homogenate.
Fresh faeces (0.1810 g) was collected from four C57BL/6 mice. The faeces was then cut in little pieces and transferred into a 15 mL tube to which 5 mL ice-cold KH buffer was added. […] The protein content of the homogenate was determined to be 1.48 mg/mL using the Pierce Modified Lowry Protein Assay method. […]

C2C12 myoblasts = settings: Murine myoblasts, MTT dose-response curve
Description: (§1) Initially, MTT concentration‐response experiments in murine and human myoblasts as well as in myotubes were performed.
(§2) Supplementary Figure 1. […] A) C2C12 myoblasts; B) human myoblasts. The x-axis indicates the different QSP concentrations, while the y-axis represents MTT reduction relative to placebo (placebo = 1.0). Squares (+ error bars) are means (+ SEM) of n=8-10 for each concentration, with the curve representing the best fitting 3-parameter logistic model around the means. The 95% confidence interval of this curve is shown as grey area. IC10 is shown as a red vertical line.

human myoblasts = tested on: human myoblasts
Description: as §1, §2

C2C12 myoblast = experiment: Viability assays other than MTT on C2C12 myoblasts; assay type: cell-based, murine; settings: 1 µM; trypan blue, Hoechst/PI, LDH release, Bax/Bcl2, Apotox assay
C. elegans = settings: adult worms treated once with 1 µM; n = 341, 5 independent experiments
From the text: Data presented are means ± SEM. * P < 0.05; ** P < 0.01 and *** P < 0.001; Welch’s 2-sided t-test with placebo as reference.DACBSupplementary Figure 2

human myotubes = settings: MTT dose-response curve
Description: as §1
(§3) The 95% confidence interval of this curve is shown as grey area. IC10 is shown as a red vertical line.

C2C12 myotubes = settings: Murine myotubes, MTT dose-response curve
Description: as §1, §3
(§4) Data are means ± SEM. […] (D–F) Data are means ± SEM. *p < .05; **p < .01; ***p < .001; two‐tailed Welch's t‐test. […] The exponent is read as -7; the minus sign and the digit are not certain. / Panel A: no compound label is printed beside the value. 'QSP' comes from the y-axis title of the same panel.

[3] = germ-free mice inoculated with genetically modified E. coli continuously producing iAM373
From the text: as §4

CaCo‐2 monolayer = experiment: in vitro; settings: CaCo-2 monolayer, apical-basal, 4°C, n = 6
From the text: as §4
(§5) [picture] Supplementary Figure 5. […] Data are means ± SEM.Supplementary Figure 5

in vitro = settings: human, Caco-2
From the text: as §4, §5

Which fragment found (muscle homogenate) does the source give for SIFTLVA here?
The fragment found was “SIFTL, major”.

What about the fragment found (kidney homogenate) of the same substance?
The fragment found was “SIFT, major; also recorded: SIFTL, major”.

What about the fragment found (liver homogenate) of the same substance?
The fragment found was “FTLVA, major”.

What about the fragment found (faeces homogenate) of the same substance?
Its fragment found is “SIF, major”.

And the fragment found [1]?
The fragment found was “SIFTL, major”.

For SIFTLVA [iAM373], which “Main metabolite at approx. T1/2” value ([2]; murine colon homogenate) is on record?
The value was “SIFTL (180 min)”.

And the “Main metabolite at approx. T1/2” value ([2]; murine faeces homogenate)?
Its value is “SIF (60 min)”.

And the “Main metabolite at approx. T1/2” value ([2]; murine kidney homogenate)?
The value was “SIFT (30 min) SIFTL (30 min)”.

And the “Main metabolite at approx. T1/2” value ([2]; murine liver homogenate)?
The value was “FTLVA (180 min)”.

And the “Main metabolite at approx. T1/2” value ([2]; murine muscle homogenate)?
The value was “SIFTL (180 min)”.

What about the IC50 (C2C12 myoblasts) of the same substance?
Its IC50 is 61 nM.

What about the IC50 (human myoblasts; Human myoblasts, MTT dose-response curve) of the same substance?
The IC50 was 180 nM.

What about the IC90 (human myoblasts; human myoblasts, MTT) of the same substance?
Its IC90 is 930 nM.

And the “cytotoxic or cytostatic effect in viability assays other than MTT” value (C2C12 myoblast)?
The value was “did not show a clear cytotoxic or cytostatic effect”.

And the “effect on survival of C. elegans” value (C. elegans)?
The value was “without a clear effect on survival”.

And the IC50 (human myotubes)?
The IC50 was 5.4 nM.

And the IC50 (C2C12 myotubes)?
Its IC50 is 13 nM.

What about the “presence in blood circulation after oral gavage of iAM373-producing E. coli” value [3] of the same substance?
The value was “detected in the blood circulation”.

What about the estimated plasma concentration in iAM373-positive older residents of the same substance?
Its estimated plasma concentration in iAM373-positive older residents is 453 pM.

And the “apical‐basal permeability coefficient (Papp)” value (CaCo‐2 monolayer)?
The value was 0.87×10^–7 cm/s.

And the Papp A→B (in vitro)?
Its Papp A→B is 0.14 ×10⁻⁶ cm/s.
